Like-named read-outs stand apart in the source and are kept apart here.
How the values were obtained:
[1] = test system: Mouse adipocyte cell line 3T3-F442A; assay: In vitro cytotoxicity test: relative growth rate of cells by CCK-8; assay type: cell-based; conditions: for relative growth rate: X±SD
Experimental: Mouse adipocyte cell line 3T3-F442A in the logarithmic growth phase was seeded into a 96-well plate at a density of 1×10^5 cells/mL, with 100 µL per well. The culture medium consisted of a basal culture medium supplemented with 10% fetal bovine serum. The seeded cells were incubated conventionally in a carbon dioxide incubator at 37°C and 5% CO2 for 24 h.
The solution was freshly prepared before use.
After routine incubation for 24 h, the old culture medium was discarded, and then 100 µL of sample solution was added to replace it in the experimental group. An equal volume of serum-free culture medium was added to the normal control group. Each concentration was set up with at least three replicate wells.
After another incubation for 24 h, the relative growth rate of cells was detected by CCK-8. The culture medium was discarded, 100 µL of CCK-8 diluted 10-fold with the serum-free medium was added to each well. The plate was incubated in a cell incubator for another 2 h. The absorbance was determined using a microplate reader at a wavelength of 450 nm. The relative growth rate (RGR) is a ratio of the absorbance of the experimental group to the absorbance of the normal control group.
3T3-F442A mouse adipocytes in the logarithmic growth phase were seeded into a 96-well plate at a density of 1 × 10^5 cells/mL, with 100 µL per well. After incubation for 24 h, the culture medium was replaced with 100 µL of culture medium containing different concentrations of samples. An equal volume of serum-free culture medium was added to the blank control group, and the incubation was continued for another 24 h. The relative growth rate of cells was determined by CCK-8. The blank control was set as 100%, the relative growth rate and half inhibitory concentration of each group were calculated.

Kunming mice [2] = test system: Kunming mice
Experimental: 6-week-old Kunming mice (weighing 20-30 g) were used as the model. A total of 200 µL of different drugs was injected subcutaneously at multiple sites with multiple needles into the left inguinal region of each mouse. The experimental groups were set as follows: • 1) Negative control group (n = 3): 200 µL of sterile normal saline; • 2) 1% sodium deoxycholate group (n = 3): 200 µL of 1% sodium deoxycholate normal saline solution; • 3) 2% sodium deoxycholate group (n = 3): 200 µL of 2% sodium deoxycholate normal saline solution; • 4) 0.5% surfactin HXRZ group (n = 3): 200 µL of 0.5% surfactin HXRZ normal saline solution; • 5) 1% surfactin HXRZ group (n = 3): 200 µL of 1% surfactin HXRZ normal saline solution; • 6) 2% surfactin HXRZ group (n = 3): 200 µL of 2% surfactin HXRZ normal saline solution;
Administration was performed once every 7 days. Ulceration at the administration site of each mouse was observed throughout the administration period. On day 21 of the experiment, all mice were sacrificed and dissected.

[3] = Surface tension at serial dilutions (CMC value determination), automatic interfacial tensiometer; assay type: physicochemical
Experimental: A 0.1% surfactin HXRZ solution and a sodium deoxycholate solution were separately prepared using purified water, followed by serial dilution to obtain different gradient concentrations. The surface tensions at different concentrations were determined respectively via a JZ-200A automatic interfacial tensiometer. Table 1 CMC value determination results

[4] = test system: transgenic obese (ob/ob) mice; conditions: for degradation of adipose tissue (H-E sections, FIG. 6): Example 5, 200 µL, one mouse
Experimental: 6-week-old transgenic obese (ob/ob) mice were used as the animal model. Different drugs were injected into the adipose pads of the left buttock. The mice were totally divided into three groups with 7-10 mice per group, as specified below. • 1) Negative control group: injected with 200 µL of sterile normal saline; • 2) 1% sodium deoxycholate group: injected with 200 µL of sterile normal saline solution containing 1% sodium deoxycholate; • 3) 0.1% surfactin HXRZ group: injected with 200 µL of sterile normal saline solution containing 0.1% surfactin HXRZ.
The day of the first administration was defined as Day 1 of the experiment. Additional administrations were performed on Day 3 and Day 5, respectively. The general condition and administration sites of the mice were observed regularly throughout the experiment. On Day 21 of the experiment, the mice were sacrificed and dissected. The adipose tissue of the left buttock was isolated, fixed immediately in adipose tissue fixative, and then embedded in paraffin. The adipose tissue was stained by hematoxylin and eosin staining for pathological examination, followed by observation and analysis under an optical microscope.
Specifically, 6-week-old transgenic obese (ob/ob) mice were used as the animal model, with one mouse per group. 200 µL each of 0.5% and 1% surfactin HXRZ normal saline solutions (test samples) were injected into the adipose pads of the left buttock, respectively. The day of the first administration was defined as Day 1 of the experiment. Additional administrations were performed on Day 3 and Day 5, respectively. The general condition and administration sites of the mice were observed regularly throughout the experiment. On Day 21 of the experiment, the mice were sacrificed and dissected. The adipose tissue of the left buttock of the mice was isolated, fixed immediately in adipose tissue fixative, and then embedded in paraffin. The adipose tissue was stained by hematoxylin and eosin staining for pathological examination, followed by observation and analysis under an optical microscope.

Kunming mice [5] = conditions: for Adipocyte density (n/mm^2): day 42, M±SEM
Experimental: In this example, 6-week-old Kunming mice (20-30 g) were used as the model. A total of 200 µL of different drugs was injected subcutaneously at multiple sites with multiple needles into the left inguinal region of each mouse. The experimental groups were set as follows. • 1) Negative control group (n = 9): 200 µL of sterile normal saline; • 2) Sodium deoxycholate group (n = 9): 200 µL of 1% sodium deoxycholate sterile normal saline solution; and • 3) Surfactin HXRZ group (n = 9): 200 µL of 1% surfactin HXRZ sterile normal saline solution.
On day 42 of the experiment, the mice were sacrificed and dissected. The left inguinal adipose tissue was harvested, fixed immediately in adipose tissue fixative and then embedded in paraffin. […] The adipocyte density was then calculated.
Statistical analysis was performed by using ulceration as an indicator of severe local inflammation and subcutaneous nodules and induration as indicators of mild local inflammation.

Female Kunming mice = assay: Animal experiment comparing surfactin-C14 and surfactin-C15: subcutaneous injection in right inguinal region, four administrations; conditions: for Mean adipocyte area (x±SEM, mm^2) / Mean adipocyte density (x±SEM, n/mm^2): H-E sections
Experimental: Female Kunming mice (aged 7-8 weeks, weighing 25.55-33.76 g) were taken, ranked in ascending order of body weight, and divided into groups of 7-8 mice using a Latin method. The tails of mice in each cage were marked and distinguished with an oil-based permanent marker.
Based on the injection dose of the positive drug reported in the literature, the subcutaneous injection dose for this test was determined to be 10 mg/mL at a volume of 200 µL. Subcutaneous injection was performed using a four-needle mesotherapy tip (34 G, 1.5 mm long, inner diameter 0.6 mm). Administration was performed sequentially from top to bottom along the right inguinal region. Administration was performed once every 14 days for a total of four administrations.
During the administration period, food intake, water consumption and general activity of all experimental animals in each group were observed daily under identical feeding conditions and housing environments. Daily observation was performed on each mouse to check for ulceration, induration and other lesions at the administration site. 14 days after the second administration, two mice from each group were sacrificed and dissected. All the remaining mice were sacrificed and dissected 14 days after the fourth administration.
In this example, changes in adipose tissue at the administration sites of experimental mice were statistically analyzed. Specifically, the adipose tissue was excised from the inguinal region on the inoculated side (right side), weighed and recorded. The adipose tissue-to-body weight percentage of the inoculated side for each mouse was then calculated using the formula: [(weight of adipose tissue on the inoculated side/body weight of the mouse) × 100%].
Further statistical analysis was performed on adipocyte density and adipocyte area. The adipose tissue from the inoculated side was immersed in adipose tissue fixative and sent for hematoxylin-eosin (H-E) staining. After imaging was completed, all measurements were standardized in millimeters. The area of adipose tissue in each image was measured, and the number of adipocytes in each image was counted. The area of a single adipocyte was calculated as: adipocyte area = total adipose tissue area/adipocyte number; adipocyte density = adipocyte number/total adipose tissue area.

[6] = Example 8, 0.005 mg/mL, 24 h, 3T3-F442A
[7] = Example 8, 0.01 mg/mL, 24 h, 3T3-F442A
[8] = Example 8, 0.02 mg/mL, 24 h, 3T3-F442A
[9] = Example 8, 0.04 mg/mL, 24 h, 3T3-F442A
[10] = Example 8, 0.08 mg/mL, 24 h, 3T3-F442A
[11] = 1 mg/mL (low-dose), four administrations
[12] = 5 mg/mL (medium-dose), four administrations
[13] = 10 mg/mL, four administrations once every 14 days, right inguinal

## surfactin-C13 [HXRZ-A]
[1]; [6]
  relative growth rate: 97.66±3.27 c %
[1]; [7]
  relative growth rate: 97.00±3.13 b, c %
[1]; [8]
  relative growth rate: 34.74±3.25 #, b, c %
[1]; [9]
  relative growth rate: 9.83±0.36 %
[1]; [10]
  relative growth rate: 9.27±0.24 b, c %

## surfactin [Surfactin HXRZ]
[1]; 0.08 mg/mL
  treatment time at which adipocytes were completely lysed: 24 h
[1]; 0.08 mg/mL, 24 h
  cell morphology of adipocytes (inverted microscope, FIG. 4): nearly all cells died
[1]; 3T3-F442A adipocytes, 24 h, calculated from Table 2 curves
  half maximal inhibitory concentrations IC50: 27.1 µg/mL
[1]; Example 2, 0.005 mg/mL, 24 h, 3T3-F442A
  Relative growth rate (%): 101.2±15.71%
[1]; Example 2, 0.01 mg/mL, 24 h, 3T3-F442A
  Relative growth rate (%): 90.23±4.30%
[1]; Example 2, 0.02 mg/mL, 24 h, 3T3-F442A
  Relative growth rate (%): 67.56±3.81%
[1]; Example 2, 0.04 mg/mL, 24 h, 3T3-F442A
  Relative growth rate (%): 19.34±1.43%
[1]; Example 2, 0.08 mg/mL, 24 h, 3T3-F442A
  Relative growth rate (%): 10.74±0.51%
[1]; Example 3, 0.02 mg/mL, 0.5 h
  Relative growth rate (%): 75.21±4.86%
[1]; Example 3, 0.02 mg/mL, 4 h
  Relative growth rate (%): 61.07±5.11%
[1]; Example 3, 0.02 mg/mL, 24 h
  Relative growth rate (%): 67.56±0.09%
[1]; Example 3, 0.04 mg/mL, 0.5 h
  Relative growth rate (%): 59.48±3.47%
[1]; Example 3, 0.04 mg/mL, 4 h
  Relative growth rate (%): 37.95±1.99%
[1]; Example 3, 0.04 mg/mL, 24 h
  Relative growth rate (%): 19.34±0.03%
[1]; Example 3, 0.08 mg/mL, 0.5 h
  Relative growth rate (%): 32.81±6.73%
[1]; Example 3, 0.08 mg/mL, 4 h
  Relative growth rate (%): 24.38±3.37%
[1]; Example 3, 0.08 mg/mL, 24 h
  Relative growth rate (%): 10.74±0.01%
[1]; [6]
  relative growth rate: 103.67±1.59 b, c %
[1]; [7]
  relative growth rate: 67.49±5.46 a, b, c %
[1]; [8]
  relative growth rate: 20.76±5.32 a, b, c %
[1]; [9]
  relative growth rate: 9.99±0.38 b %
[1]; [10]
  relative growth rate: 9.01±0.06 b, c %
Kunming mice [2]; 0.5 %, treated side vs untreated side
  degradation of inguinal adipose tissue at the administration sites (dissection, FIG. 9): a certain degree of degradation
Kunming mice [2]; mouse, in vivo
  degree of ulceration at the administration sites compared with sodium deoxycholate: milder than that in the 2% sodium deoxycholate group
  degree of ulceration compared with sodium deoxycholate: milder than that in the 1% sodium deoxycholate group
  healing of ulceration: healed completely
  healing of ulcers: failed to heal
Kunming mice [2]; mouse, in vivo, sc
  ulceration at the injection sites: no ulceration occurred at the injection sites
[3]; solution concentration 0.00078125 % in purified water
  Surface tension value: 39.08 mN/m
[3]; solution concentration 0.0015625 % in purified water
  Surface tension value: 38.38 mN/m
[3]; solution concentration 0.003125 % in purified water
  Surface tension value: 37.64 mN/m
[3]; solution concentration 0.00625 % in purified water
  Surface tension value: 37.16 mN/m
[3]; solution concentration 0.0125 % in purified water
  Surface tension value: 36.28 mN/m
[3]; solution concentration 0.025 % in purified water
  Surface tension value: 35.64 mN/m
[3]; solution concentration 0.05 % in purified water
  Surface tension value: 33.43 mN/m
[3]; solution concentration 0.05 % in purified water, listed as surfactin HXRZ
  Surface tension value: 33 mN/m
[3]; solution concentration 0.1 % in purified water
  Surface tension value: 33.69 mN/m
[4]; Example 4, 0.1 %, 200 µL in normal saline, left buttock, Days 1, 3, 5, Day 21
  degradation of adipose tissue at the administration sites (H-E sections, FIG. 5): induced the degradation of adipose tissue at the administration sites
[4]; 0.5 %, left buttock, Days 1, 3, 5, Day 21
  degradation of adipose tissue (H-E sections, FIG. 6): induced the degradation of adipose tissue in mice
[4]; 1 %, left buttock, Days 1, 3, 5, Day 21
  degradation of adipose tissue (H-E sections, FIG. 6): induced the degradation of adipose tissue in mice
[4]; mouse, in vivo
  induration / ulceration at the administration sites: No such phenomena were observed
Kunming mice [5]; 1 %, 200 µL s.c. left inguinal, once every 14 days, day 42, n = 9
  Adipose tissue weight: 0.2007 ± 0.0365 g
Kunming mice [5]; 1 %, 200 µL s.c.
  Adipocyte density (n/mm^2): 676.94±51.326 n/mm^2
Kunming mice [5]; 1 %, 200 µL s.c., listed as surfactin HXRZ
  Adipocyte density (n/mm^2): 676.94±51.326 n/mm^2
Kunming mice [5]; 1 %, 200 µL s.c., day 42, treated-side inguinal adipose weight/body weight × 100%
  Fat index (%): 0.50±0.10 %
Kunming mice [5]; mouse, in vivo
  Ulceration: 0
  ulceration at the administration sites over the administration cycle: no ulceration occurred at the administration sites

## surfactin-C14 [HXRZ-B]
[1]; [6]
  relative growth rate: 89.75±7.04 #, c %
[1]; [7]
  relative growth rate: 46.22±4.26 #, a %
[1]; [8]
  relative growth rate: 14.74±0.48 #, a %
[1]; [9]
  relative growth rate: 9.02±0.37 #, c %
[1]; [10]
  relative growth rate: 8.11±0.24 #, a, c %
Female Kunming mice; 1 mg/mL (low-dose)
  Mean adipocyte area (x±SEM, mm^2): 0.00284±0.000267 mm^2
  Mean adipocyte density (x±SEM, n/mm^2): 418.7156±85.9688 n/mm^2
Female Kunming mice; [11]
  Mean wet adipose tissue weight (x±SEM, unit: g): 0.326 ± 0.106 g
  Mean wet adipose tissue weight/body weight percentage (x±SEM, %): 0.76±0.21%
Female Kunming mice; 5 mg/mL (medium-dose)
  Mean adipocyte area (x±SEM, mm^2): 0.003554±0.00047 mm^2
  Mean adipocyte density (x±SEM, n/mm^2): 313.2046±85.5687 n/mm^2
Female Kunming mice; [12]
  Mean wet adipose tissue weight (x±SEM, unit: g): 0.225 ± 0.039 g
  Mean wet adipose tissue weight/body weight percentage (x±SEM, %): 0.56±0.08 %
Female Kunming mice; 10 mg/mL, four administrations
  Mean wet adipose tissue weight/body weight percentage (x±SEM, %): 0.58±0.07 %
  Mean adipocyte area (x±SEM, mm^2): 0.003177±0.000284 mm^2
  Mean adipocyte density (x±SEM, n/mm^2): 340.3195±31.7463 n/mm^2
Female Kunming mice; [13]
  Mean wet adipose tissue weight (x±SEM, unit: g): 0.232 ± 0.032 g

## surfactin-C15 [HXRZ-C]
[1]; [6]
  relative growth rate: 76.06±3.24 #, a, b %
[1]; [7]
  relative growth rate: 43.53±3.35 #, a %
[1]; [8]
  relative growth rate: 17.61±1.76 #, a %
[1]; [9]
  relative growth rate: 10.29±0.38 b %
[1]; [10]
  relative growth rate: 10.31±0.48 *,#,a,b %
[1]; Example 8, 3T3-F442A, 24 h
  IC50 against adipocytes relative to HXRZ-A: approximately half that of HXRZ-A
Female Kunming mice; 1 mg/mL (low-dose)
  Mean adipocyte area (x±SEM, mm^2): 0.003222±0.000161 mm^2
  Mean adipocyte density (x±SEM, n/mm^2): 355.3684±57.4571 n/mm^2
Female Kunming mice; [11]
  Mean wet adipose tissue weight (x±SEM, unit: g): 0.198 ± 0.030 g
  Mean wet adipose tissue weight/body weight percentage (x±SEM, %): 0.51±0.08 %
Female Kunming mice; 5 mg/mL (medium-dose)
  Mean adipocyte area (x±SEM, mm^2): 0.003297±0.000274 mm^2
  Mean adipocyte density (x±SEM, n/mm^2): 328.9026±63.1322 n/mm^2
Female Kunming mice; [12]
  Mean wet adipose tissue weight (x±SEM, unit: g): 0.209 ± 0.021 g
  Mean wet adipose tissue weight/body weight percentage (x±SEM, %): 0.53±0.05 %
Female Kunming mice; 10 mg/mL, four administrations
  Mean wet adipose tissue weight/body weight percentage (x±SEM, %): 0.48±0.02 %
  Mean adipocyte area (x±SEM, mm^2): 0.004632±0.000253 mm^2
  Mean adipocyte density (x±SEM, n/mm^2): 251.3400±31.0087 n/mm^2
Female Kunming mice; [13]
  Mean wet adipose tissue weight (x±SEM, unit: g): 0.188 ± 0.011 g

From patent publication EP4744648A1, “LIPOPEPTIDE-CONTAINING FAT-DISSOLVING PRODUCT, AND PREPARATION METHOD THEREFOR AND USE THEREOF” (Bloomage Biotechnology Corporation Limited, priority 2023, dated 2024)
